In the assay the target is T1, androgen receptor (Homo sapiens, UniProt P10275).
T1 sequence (P10275 1-920 Q868H): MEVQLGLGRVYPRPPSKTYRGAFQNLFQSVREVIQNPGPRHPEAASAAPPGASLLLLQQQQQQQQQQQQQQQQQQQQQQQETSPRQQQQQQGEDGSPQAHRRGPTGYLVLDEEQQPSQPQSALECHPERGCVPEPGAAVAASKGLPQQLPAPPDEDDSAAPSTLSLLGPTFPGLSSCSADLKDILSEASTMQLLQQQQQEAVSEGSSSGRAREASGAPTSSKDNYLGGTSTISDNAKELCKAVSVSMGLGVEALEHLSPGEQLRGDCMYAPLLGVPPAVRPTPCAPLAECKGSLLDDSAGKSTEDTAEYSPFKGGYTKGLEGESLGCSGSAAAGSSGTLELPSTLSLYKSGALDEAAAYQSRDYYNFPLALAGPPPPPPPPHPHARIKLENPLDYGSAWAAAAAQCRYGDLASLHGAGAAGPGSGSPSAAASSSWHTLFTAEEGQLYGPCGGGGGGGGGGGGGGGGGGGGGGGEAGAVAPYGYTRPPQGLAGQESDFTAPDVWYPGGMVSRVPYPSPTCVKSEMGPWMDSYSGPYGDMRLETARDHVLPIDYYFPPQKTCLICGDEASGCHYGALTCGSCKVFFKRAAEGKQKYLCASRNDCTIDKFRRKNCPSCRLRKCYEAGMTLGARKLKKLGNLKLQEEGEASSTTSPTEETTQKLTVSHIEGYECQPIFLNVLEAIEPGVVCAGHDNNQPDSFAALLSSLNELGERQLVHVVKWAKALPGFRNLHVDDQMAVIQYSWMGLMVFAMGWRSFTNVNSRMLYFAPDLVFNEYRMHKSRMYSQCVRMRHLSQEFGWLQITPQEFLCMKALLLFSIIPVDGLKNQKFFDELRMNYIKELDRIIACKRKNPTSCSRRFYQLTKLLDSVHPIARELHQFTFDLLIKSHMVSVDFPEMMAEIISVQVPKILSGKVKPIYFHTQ
The assay is described as follows: AR Antagonist Cell Assay (MMTV-luciferase reporter, DHT-stimulated). The assay is classed as cell-based. The note with it: MDA-MB453-MMTV clone 54-19 cells, inhibition of induction by 100 pM DHT, 17 hr. As to the method:
The compounds ability to antagonize the effects of androgen on the androgen receptor were determined in the protocol described immediately below.
Experimental Procedure for AR Antagonist Cell Assay
Cell line: MDA-MB453-MMTV clone 54-19. This cell line is a stable transfected cell line with MDA-MB453 cell background (human breast tumor cell expressing high level of androgen receptor). A MMTV minimal promoter containing ARE was first cloned in front of a firefly luciferase reporter gene. Then the cascade was cloned into transfection vector pUV120puro. Electroporation method was used for transfecting MDA-MB-453 cell. Puromycin resistant stable cell line was selected.
Cell Culture Media and Reagents:
Culture medium: DMEM (high glucose, Gibco cat #: 11960-044), 10% FBS, and 1% L-glutamine
Plating medium: DMEM (phenol red free), 10% charcoal treated HyClone serum, 1% L-glutamine
Assay medium: DMEM (phenol red free), 1% charcoal treated HyClone serum, 1% L-glutamine, and 1% penicillin/streptomycin
3×luciferase buffer: 2% beta-mercaptoethanol, 0.6% ATP, 0.0135% luciferine in cell lysis buffer
• 1. Cells are maintained in culture medium, splitting cells when they reach 80–90% confluence • 2. To test compounds, 10,000 cells/well are plated to opaque 96 cell culture plate in 100 ul/well plating medium, culture for overnight at 37° C. in cell culture incubator • 3. Carefully remove plating medium, then add 80 ul/well of pre-warmed assay medium, add 10 ul/well testing compound (final concentration at 10 uM or 1 uM), incubate at 37° C. for 30 minutes • 4. Add 10 ul/well freshly prepared DHT (final concentration at 100 pM) to each well, incubate at 37° C. for 17 hr (overnight) • 5. Add 50 ul/well 3×luciferase buffer, incubate at room temperature for 5 minutes, then count on Luminometer
The fold induction over background by 100 pM DHT in the absence of testing compounds is standardized as 100% and experimental result is expressed as percentage of inhibition by testing compounds.
On the technique in general: In a reporter assay the amount or activity of a reporter protein is the signal.

For orientation: IC50 means the concentration that gives 50% inhibition. Higher therefore signals lower potency.

Structures are written as SMILES. Where only a bound is given, the exact number is not on record here.

Regarding `CCOC(=O)N1CCN(S(=O)(=O)c2ccc(Cc3ccc4oc(=O)cc(C(F)(F)F)c4c3)cc2)CC1` [Example 29, 4-[4-(2-Oxo-4-trifluoromethyl-2H-chromen-6-ylmethyl)-benzenesulfonyl]piperazine-1-carboxylic acid ethylester], the IC50 was above 10 µM.
To `O=c1cc(C(F)(F)F)c2cc(Cc3ccc(S(=O)(=O)N4CCC(N5CCCC5)CC4)cc3)ccc2o1` [Example 30, 6-[4-(4-Pyrrolidin-1-ylpiperidine-1-sulfonyl)benzyl]-4-trifluoromethylchromen-2-one] belongs above 10 µM; to `O=c1cc(C(F)(F)F)c2cc(Cc3ccc(S(=O)(=O)N4CCN(CCCO)CC4)cc3)ccc2o1` [Example 31, 6-{4-[4-(3-Hydroxypropyl)piperazine-1-sulfonyl]benzyl}-4-trifluoromethylchromen-2-one], 8.2 µM.
In turn, `COc1ccc(N2CCN(S(=O)(=O)c3ccc(Cc4ccc5oc(=O)cc(C(F)(F)F)c5c4)cc3)CC2C)cc1` (centres unmarked) [Example 32, 6-{4-[4-(4-Methoxyphenyl)-3-methylpiperazine-1-sulfonyl]benzyl}-4-trifluoromethylchromen-2-one] had an IC50 of 9.3 µM.
`O=c1cc(C(F)(F)F)c2cc(Cc3ccc(S(=O)(=O)N4CCC(O)(c5cccs5)CC4)cc3)ccc2o1` [Example 33, 6-[4-(4-Hydroxy-4-thiophen-2-ylpiperidine-1-sulfonyl)benzyl]-4-trifluoromethylchromen-2-one] registered an IC50 of 8.6 µM.
To `O=c1cc(C(F)(F)F)c2cc(Cc3ccc(S(=O)(=O)N4Cc5ccccc5C4)cc3)ccc2o1` [Example 34, 6-[4-(1,3-Dihydroisoindole-2-sulfonyl)benzyl]-4-trifluoromethylchromen-2-one] belongs 4.5 µM; to `COc1cc2c(cc1OC)CN(S(=O)(=O)c1ccc(Cc3ccc4oc(=O)cc(C(F)(F)F)c4c3)cc1)CC2` [Example 35, 6-[4-(6,7-Dimethoxy-3,4-dihydro-1H-isoquinoline-2-sulfonyl)benzyl]-4-trifluoromethylchromen-2-one], 1.2 µM; to `O=c1cc(C(F)(F)F)c2cc(Cc3ccc(S(=O)(=O)N4CCC5(CC4)OCCO5)cc3)ccc2o1` [Example 36, 6-[4-(1,4-Dioxa-8-azaspiro[4.5]decane-8-sulfonyl)benzyl]-4-trifluoromethylchromen-2-one], 7.2 µM.
To `O=c1cc(C(F)(F)F)c2cc(Cc3ccc(S(=O)(=O)N4CCCCC4CO)cc3)ccc2o1` (centres unmarked) [Example 37, 6-[4-(2-Hydroxymethyl-piperidine-1-sulfonyl)benzyl]-4-trifluoromethylchromen-2-one] belongs 5.3 µM; to `O=c1cc(C(F)(F)F)c2cc(Cc3ccc(S(=O)(=O)N4CCN(CCCN5CCCCC5)CC4)cc3)ccc2o1` [Example 38, 6-{4-[4-(3-Piperidin-1-ylpropyl)piperazine-1-sulfonyl]benzyl}-4-trifluoromethylchromen-2-one], above 10 µM.
To `COCCN1CCN(S(=O)(=O)c2ccc(Cc3ccc4oc(=O)cc(C(F)(F)F)c4c3)cc2)CC1` [Example 39, 6-{4-[4-(2-Methoxyethyl)piperazine-1-sulfonyl]benzyl}-4-trifluoromethylchromen-2-one] belongs 9.4 µM; to `COC(=O)[C@@H]1CCCN1S(=O)(=O)c1ccc(Cc2ccc3oc(=O)cc(C(F)(F)F)c3c2)cc1` [Example 41, 1-[4-(2-Oxo-4-trifluoromethyl-2H-chromen-6-ylmethyl)-benzenesulfonyl]pyrrolidine-2-carboxylic acidmethyl ester], above 10 µM; to `O=c1cc(C(F)(F)F)c2cc(Cc3ccc(S(=O)(=O)N4CCN(CCOCCO)CC4)cc3)ccc2o1` [Example 42, 6-(4-{4-[2-(2-Hydroxyethoxy)ethyl]-piperazine-1-sulfonyl}benzyl)-4-trifluoromethylchromen-2-one], above 10 µM.
In the case of `O=c1cc(C(F)(F)F)c2cc(Cc3ccc(S(=O)(=O)N4CCN(CCO)CC4)cc3)ccc2o1` [Example 43, 6-{4-[4-(2-Hydroxyethyl)piperazine-1-sulfonyl]benzyl}-4-trifluoromethylchromen-2-one], the IC50 was determined as 8.9 µM.
The same measure for `CC(C)N(CCN1CCN(S(=O)(=O)c2ccc(Cc3ccc4oc(=O)cc(C(F)(F)F)c4c3)cc2)CC1)C(C)C` [Example 44, 6-{4-[4-(2-Diisopropylamino-ethyl)piperazine-1-sulfonyl]benzyl}-4-trifluoromethylchromen-2-one]: 5.2 µM; for `O=c1cc(C(F)(F)F)c2cc(Cc3ccc(S(=O)(=O)N4CCCC(CO)C4)cc3)ccc2o1` (centres unmarked) [Example 45, 6-[4-(3-Hydroxymethyl-piperidine-1-sulfonyl)benzyl]-4-trifluoromethylchromen-2-one]: 7.6 µM.
Molecule `O=c1cc(C(F)(F)F)c2cc(Cc3ccc(S(=O)(=O)N4CCSC4)cc3)ccc2o1` [Example 46, 6-[4-(Thiazolidine-3-sulfonyl)benzyl]-4-trifluoromethylchromen-2-one] gave an IC50 above 10 µM.
To `O=C(CN1CCN(S(=O)(=O)c2ccc(Cc3ccc4oc(=O)cc(C(F)(F)F)c4c3)cc2)CC1)N1CCCC1` [Example 47, 6-{4-[4-(2-Oxo-2-pyrrolidin-1-ylethyl)piperazine-1-sulfonyl]benzyl}-4-trifluoromethylchromen-2-one] belongs above 10 µM; to `O=c1cc(C(F)(F)F)c2cc(Cc3ccc(S(=O)(=O)N4CCCCC4c4cccnc4)cc3)ccc2o1` (centres unmarked) [Example 48, 6-[4-(3,4,5,6-Tetrahydro-2H-[2,3′]bipyridinyl-1-sulfonyl)benzyl]-4-trifluoromethylchromen-2-one], 8.9 µM; to `CC1CCN(S(=O)(=O)c2ccc(Cc3ccc4oc(=O)cc(C(F)(F)F)c4c3)cc2)CC1` [Example 49, 6-[4-(4-Methylpiperidine-1-sulfonyl)benzyl]-4-trifluoromethylchromen-2-one], above 10 µM.
The same measure for `O=c1cc(C(F)(F)F)c2cc(Cc3ccc(S(=O)(=O)N4CCN(c5ccncc5)CC4)cc3)ccc2o1` [Example 50, 6-[4-(4-Pyridin-4-ylpiperazine-1-sulfonyl)benzyl]-4-trifluoromethylchromen-2-one]: 1.6 µM; for `O=c1cc(C(F)(F)F)c2cc(Cc3ccc(S(=O)(=O)N4CCCCC4CCO)cc3)ccc2o1` (centres unmarked) [Example 51, 6-{4-[2-(2-Hydroxyethyl)piperidine-1-sulfonyl]benzyl}-4-trifluoromethylchromen-2-one]: above 10 µM; for `O=c1cc(C(F)(F)F)c2cc(Cc3ccc(S(=O)(=O)N4CCCC4CO)cc3)ccc2o1` (centres unmarked) [Example 52, 6-[4-(2-Hydroxymethyl-pyrrolidine-1-sulfonyl)benzyl]-4-trifluoromethylchromen-2-one]: 3.4 µM.
As to `O=c1cc(C(F)(F)F)c2cc(Cc3ccc(S(=O)(=O)N4CCCC5CCCCC54)cc3)ccc2o1` (centres unmarked) [Example 53, 6-[4-(Octahydroquinoline-1-sulfonyl)benzyl]-4-trifluoromethylchromen-2-one], the half-maximal inhibitory concentration (IC50) amounted to 4.2 µM.
The same measure for `O=c1cc(C(F)(F)F)c2cc(Cc3ccc(S(=O)(=O)N4CCCN(CCc5ccccc5)CC4)cc3)ccc2o1` [Example 54]: 2.5 µM; for `CN(C)CCN1CCN(S(=O)(=O)c2ccc(Cc3ccc4oc(=O)cc(C(F)(F)F)c4c3)cc2)CC1` [Example 55, 6-{4-[4-(2-Dimethylamino-ethyl)piperazine-1-sulfonyl]benzyl}-4-trifluoromethylchromen-2-one]: above 10 µM.
